System: hypoxia-inducible endogenous VEGF expression in HeLa cells
Test: Hypoxia-inducible endogenous VEGF expression, VEGF ELISA of conditioned media (dose-response EC50)
Assay type: cell-based
Method in brief: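 Secreted VEGF was quantified by ELISA against a per-assay standard curve after HeLa cells spent 24-48 h in 1% O2, 5% CO2, N2 balance with or without compound. Across a series of, e.g., seven concentrations, percentage inhibition (max 100%, min 0%) gave EC50 and CC50 values.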

[1] = Homo sapiens, HeLa cells, hypoxic conditions (1% O2)
[2] = Homo sapiens, HeLa cells, hypoxic conditions (1% O2, 5% CO2)
[3] = Homo sapiens, HeLa cells under hypoxic conditions

EC50 [1] [nM]	EC50 [3] [nM]	Compound	other results
–	–	COCCN(CCOC)CC(O)COc1ccc(C2c3[nH]c4ccc(Cl)cc4c3CCN2C(=O)Oc2ccc(Cl)cc2)cc1 (stereo not drawn) [Compound 918]	EC50 [2]: < 8 nM
–	8 to 40	CC(C)OC(=O)N1CCc2c([nH]c3ccc(Cl)cc23)C1c1cccc(F)c1 (stereo not drawn) [Compound 90]	–
< 8	–	CCOC(=O)N1CCc2c([nH]c3ccc(Br)cc23)C1c1ccc(CO)cc1 (stereo not drawn) [Compound 430]	–
< 8	–	C=CCOc1ccc(C2c3[nH]c4ccc(Cl)cc4c3CCN2C(=O)OCCC)cc1 (stereo not drawn) [Compound 406]	–
40 to 200	–	CCOC(=O)N1CCc2c([nH]c3ccc(Cl)cc23)C1CC(C)(C)C (stereo not drawn) [Compound 486]	–
–	< 8	COc1ccc(C2c3[nH]c4ccc(Cl)cc4c3CCN2C(=O)Oc2ccc(C)cc2)cc1 (stereo not drawn) [Compound 17]	–
–	40 to 200	CCCC(=O)N1CCc2c([nH]c3ccc(Cl)cc23)C1c1ccc(OC)c(OC)c1 (stereo not drawn) [Compound 144]	–
–	40 to 200	FC(F)(F)c1ccc(C2NCCc3c2[nH]c2ccc(Cl)cc32)cc1 (stereo not drawn) [Compound 159]	–
–	> 1000	CCOC(=O)N1CCc2c([nH]c3ccc(Cl)cc23)C1CC (stereo not drawn) [Compound 240]	–
–	> 1000	Clc1ccc2[nH]c3c(c2c1)CCN(Cc1ccccc1)C3c1ccccn1 (stereo not drawn) [Compound 275]	–
–	40 to 200	COc1ccc(C2c3[nH]c4ccc(Cl)cc4c3CCN2C(=O)NC2CCCCC2)cc1 (stereo not drawn) [Compound 147]	–
–	8 to 40	COc1ccc(C2c3[nH]c4ccc(Cl)cc4c3CCN2C(=O)OC(C)C)cc1 (stereo not drawn) [Compound 57]	–
–	> 1000	COc1ccc2c3c([nH]c2c1)C(c1ccccc1)NCC3 (stereo not drawn) [Compound 321]	–
–	8 to 40	CCOC(=O)N1CCc2c([nH]c3ccc(Cl)cc23)C1c1ccc(C)cc1 (stereo not drawn) [Compound 91]	–
–	> 1000	COc1ccc(C2c3[nH]c4ccccc4c3CCN2C(=S)NC(C)C)cc1 (stereo not drawn) [Compound 289]	–
–	40 to 200	Brc1ccc(C2NCCc3c2[nH]c2ccc(Br)cc32)cc1 (stereo not drawn) [Compound 157]	–
–	8 to 40	O=C(Oc1ccc(Cl)cc1)N1CCc2c([nH]c3ccc(Cl)cc23)C1c1ccc2c(c1)OCO2 (stereo not drawn) [Compound 349]	–
200 to 1000	–	CCOC(=O)N1CCc2c([nH]c3ccc(Cl)cc23)C1c1ccc(C(N)=O)cc1 (stereo not drawn) [Compound 542]	–
–	< 8	CCOC(=O)N1CCc2c([nH]c3ccc(Br)cc23)C1c1ccc(Cl)cc1 (stereo not drawn) [Compound 4]	–
> 1000	–	CC(C)(C)CC1NCCc2c1[nH]c1ccc(Cl)cc21 (stereo not drawn) [Compound 565]	–
–	> 1000	Brc1ccc2[nH]c3c(c2c1)CCNC3c1ccc(OCc2ccccc2)cc1 (stereo not drawn) [Compound 232]	–
–	–	CN1CCCC(COc2ccc(C3c4[nH]c5ccc(Cl)cc5c4CCN3C(=O)Oc3ccc(Cl)cc3)cc2)C1 (stereo not drawn) [Compound 966]	EC50 [2]: 8 to 40 nM
–	200 to 1000	Clc1ccc2[nH]c3c(c2c1)CCNC3c1ccc2c(c1)OCO2 (stereo not drawn) [Compound 227]	–
–	> 1000	Clc1ccc2[nH]c3c(c2c1)CCN(Cc1ccccc1)C3c1nccs1 (stereo not drawn) [Compound 262]	–

EC50 [1] [nM]	EC50 [3] [nM]	Compound	other results
–	40 to 200	ON1CCc2c([nH]c3ccc(Br)cc23)C1c1ccccc1 (stereo not drawn) [Compound 138]	–
8 to 40	–	COCCOC(=O)Nc1ccc(C2c3[nH]c4ccc(Cl)cc4c3CCN2C(=O)Oc2ccc(Cl)cc2)cc1 (stereo not drawn) [Compound 470]	–
–	> 1000	c1ccc(COc2ccc(C3NCCc4c3[nH]c3ccc(OCc5ccccc5)cc43)cc2)cc1 (stereo not drawn) [Compound 288]	–
–	> 1000	COc1ccc(C2NCCc3c2[nH]c2ccc(OC)cc32)cc1 (stereo not drawn) [Compound 323]	–
–	40 to 200	Brc1ccc2[nH]c3c(c2c1)CCN(c1ncccn1)C3c1ccc(OCCN2CCOCC2)cc1 (stereo not drawn) [Compound 357]	–
–	–	Cc1ccc(C2c3[nH]c4ccc(Br)cc4c3CCN2C(=O)Oc2ccc(F)cc2)cc1 (stereo not drawn) [Compound 403]	EC50 (HeLa cells, hypoxic conditions (1% O2)): < 8 nM
–	200 to 1000	Clc1ccc2[nH]c3c(c2c1)CCNC3c1cc(Br)cc(Br)c1 (stereo not drawn) [Compound 223]	–
8 to 40	–	COCCOCCOc1ccc(C2c3[nH]c4ccc(Cl)cc4c3CCN2C(=O)Oc2ccc(Cl)cc2)cc1 (stereo not drawn) [Compound 675]	–
–	8 to 40	COC(=O)N1CCc2c([nH]c3ccc(Br)cc23)C1c1ccccc1 (stereo not drawn) [Compound 65]	–
< 8	–	COCCOc1ccc(C2c3[nH]c4ccc(Cl)cc4c3CCN2C(=O)OCC(C)C)cc1 (stereo not drawn) [Compound 407]	–
8 to 40	–	COc1ccc(OC(=O)N2CCc3c([nH]c4ccc(Cl)cc34)C2c2ccc(OCC(O)CO)cc2)cc1 (stereo not drawn) [Compound 635]	–
–	40 to 200	CCOC(=O)N1CCc2c([nH]c3ccc(Cl)cc23)C1c1cccc([N+](=O)[O-])c1 (stereo not drawn) [Compound 139]	–
–	8 to 40	O=C(Oc1ccc(Cl)cc1)N1CCc2c([nH]c3ccc(Cl)cc23)C1c1ccc(Cl)cc1 (stereo not drawn) [Compound 351]	–
–	–	CCN(CC)CCCOc1ccc(C2c3[nH]c4ccc(Cl)cc4c3CCN2C(=O)Oc2ccc(Cl)cc2)cc1 (stereo not drawn) [Compound 946]	EC50 [2]: 8 to 40 nM
–	8 to 40	COc1cccc(C2c3[nH]c4ccc(Cl)cc4c3CCN2C(=O)OC(C)C)c1 (stereo not drawn) [Compound 88]	–
–	40 to 200	Clc1cccc(C2NCCc3c2[nH]c2ccc(Br)cc32)c1Cl (stereo not drawn) [Compound 151]	–
–	< 8	CCOC(=O)N1CCc2c([nH]c3ccc(Cl)cc23)C1c1ccccc1 (stereo not drawn) [Compound 38]	–
< 8	–	COCCOc1ccc(C2c3[nH]c4ccc(Cl)cc4c3CCN2C(=O)Oc2ccccc2)cc1 (stereo not drawn) [Compound 436]	–
8 to 40	–	O=C(Oc1ccc(F)cc1)N1CCc2c([nH]c3ccc(Cl)cc23)C1c1ccc(F)cc1 (stereo not drawn) [Compound 452]	–
–	8 to 40	COC(=O)N1CCc2c([nH]c3ccc(Cl)cc23)C1c1cccc(Cl)c1 (stereo not drawn) [Compound 104]	–
8 to 40	–	CCOC(=O)N1CCC(NC(=O)c2ccc(C3c4[nH]c5ccc(Cl)cc5c4CCN3C(=O)OCC)cc2)CC1 (stereo not drawn) [Compound 453]	–
8 to 40	–	CCOC(=O)N1CCc2c([nH]c3ccc(Cl)cc23)C1CC(C)SC (stereo not drawn) [Compound 442]	–
8 to 40	–	O=C(Oc1ccccc1Cl)N1CCc2c([nH]c3ccc(Cl)cc23)C1c1ccc(OCCCCl)cc1 (stereo not drawn) [Compound 713]	–
< 8	–	C=CCOc1ccc(C2c3[nH]c4ccc(Cl)cc4c3CCN2C(=O)OC(C)C)cc1 (stereo not drawn) [Compound 408]	–

EC50 [1] [nM]	EC50 [3] [nM]	Compound	other results
–	–	O=C(Oc1ccc(F)cc1)N1CCc2c([nH]c3ccc(Cl)cc23)C1c1ccc(OCCn2ccnc2)cc1 (stereo not drawn) [Compound 835]	EC50 [2]: 40 to 200 nM
–	> 1000	O=C(COc1ccc(C2c3[nH]c4ccc(Cl)cc4c3CCN2C(=O)Oc2ccccc2)cc1)Oc1ccccc1 (stereo not drawn) [Compound 366]	–
–	< 8	CC(C)OC(=O)N1CCc2c([nH]c3ccc(Cl)cc23)C1c1ccc(C#N)cc1 (stereo not drawn) [Compound 45]	–
–	> 1000	Clc1ccc2[nH]c3c(c2c1)CCN(Cc1ccccc1)C3c1cccnc1 (stereo not drawn) [Compound 276]	–
–	> 1000	O=c1c(C2NCCc3c2[nH]c2ccc(Cl)cc32)coc2ccccc12 (stereo not drawn) [Compound 234]	–
–	> 1000	Clc1ccc2[nH]c3c(c2c1)CCN(Cc1ccccc1)C3c1cc2c(cc1Cl)OCO2 (stereo not drawn) [Compound 274]	–
–	> 1000	COc1ccc(C2c3[nH]c4ccccc4c3CCN2C(=S)Nc2ccc(C)cc2)cc1 (stereo not drawn) [Compound 317]	–
–	40 to 200	CCOC(=O)N1CCc2c([nH]c3ccc(Cl)cc23)C1c1cccc(O)c1 (stereo not drawn) [Compound 165]	–
–	–	Cc1cnc(NCCOc2ccc(C3c4[nH]c5ccc(Cl)cc5c4CCN3C(=O)Oc3ccc(F)cc3)cc2)s1 (stereo not drawn) [#838]	EC50 [2]: < 8 nM
–	200 to 1000	Fc1ccc(F)c(C2NCCc3c2[nH]c2ccc(Br)cc32)c1 (stereo not drawn) [Compound 178]	–
8 to 40	–	CCOC(=O)N1CCc2c([nH]c3ccc(Cl)cc23)C1c1ccc(OCCCN2CCCC2)cc1 (stereo not drawn) [Compound 449]	–
200 to 1000	–	CCOC(=O)N1CCc2c([nH]c3ccc(Cl)cc23)C1C(C)Cc1ccc2c(c1)OCO2 (stereo not drawn) [Compound 553]	–
–	40 to 200	Clc1ccc(C2NCCc3c2[nH]c2ccc(Cl)cc32)c(Cl)c1 (stereo not drawn) [Compound 124]	–
–	8 to 40	COC(=O)N1CCc2c([nH]c3ccc(Cl)cc23)C1c1ccc(C)cc1 (stereo not drawn) [Compound 52]	–
< 8	–	COC(=O)c1ccc(C2c3[nH]c4ccc(Cl)cc4c3CCN2C(=O)Oc2ccc(Cl)cc2)cc1 (stereo not drawn) [Compound 580]	–
< 8	–	Cc1ccc(OC(=O)N2CCc3c([nH]c4ccc(Cl)cc34)C2c2ccc(OCC(O)CO)cc2)cc1 (stereo not drawn) [Compound 631]	–
–	> 1000	COc1ccc(C2c3[nH]c4ccccc4c3CCN2C(=O)NC(C)C)cc1 (stereo not drawn) [Compound 306]	–
–	8 to 40	COc1ccc(C2c3[nH]c4ccc(Cl)cc4c3CCN2c2cnccn2)cc1 (stereo not drawn) [Compound 1]	–
–	> 1000	CCNC(=O)N1CCc2c([nH]c3ccccc23)C1c1ccc(OC)cc1 (stereo not drawn) [Compound 307]	–
–	40 to 200	COC(=O)N1CCc2c([nH]c3ccc(Cl)cc23)C1c1cccc(OC)c1 (stereo not drawn) [Compound 127]	–
8 to 40	–	O=C(Oc1ccc(Cl)cc1)N1CCc2c([nH]c3ccc(Cl)cc23)C1c1ccc(OCC2CO2)cc1 (stereo not drawn) [Compound 460]	–
200 to 1000	–	CNc1ncc(C2c3[nH]c4ccc(Cl)cc4c3CCN2C(=O)Oc2ccc(OC)cc2)cn1 (stereo not drawn) [Compound 517]	–

Compound	EC50 [1] [nM]	EC50 [3] [nM]	other results
COc1ccc(OC(=O)N2CCc3c([nH]c4ccc(Cl)cc34)C2c2ccc(OCCCN(C)C)cc2)cc1 (stereo not drawn) [Compound 501]	40 to 200	–	–
O=C(Oc1ccc(F)cc1)N1CCc2c([nH]c3ccc(Cl)cc23)C1c1ccc(OCC(O)CN2CCOCC2)cc1 (stereo not drawn) [Compound 638]	< 8	–	–
COCCCNCCCCCCOc1ccc(C2c3[nH]c4ccc(Cl)cc4c3CCN2C(=O)Oc2ccc(Cl)cc2)cc1 (stereo not drawn) [Compound 785]	< 8	–	–
O=C(Oc1ccc(Cl)cc1)N1CCc2c([nH]c3ccc(Cl)cc23)C1c1ccc(OCCCCCCNCCCn2ccnc2)cc1 (stereo not drawn) [Compound 789]	40 to 200	–	–
O=C(Oc1ccc(Cl)cc1)N1CCc2c([nH]c3ccc(Cl)cc23)C1c1ccc(OCCCCNCCO)cc1 (stereo not drawn) [Compound 699]	8 to 40	–	–
COCCCNCCCCCCOc1ccc(C2c3[nH]c4ccc(Cl)cc4c3CCN2C(=O)Oc2ccc(F)cc2)cc1 (stereo not drawn) [Compound 775]	< 8	–	–
O=C(Oc1ccc(F)cc1)N1CCc2c([nH]c3ccc(Cl)cc23)C1c1ccc(OCCCCN2CCCCC2)cc1 (stereo not drawn) [Compound 739]	< 8	–	–
O=C(Oc1ccc(Cl)cc1)N1CCc2c([nH]c3ccc(Cl)cc23)C1c1ccc(OCCCCN2CCCC2)cc1 (stereo not drawn) [Compound 698]	8 to 40	–	–
